Laboratory results from patent US20080234233A1, “MEDICAMENT FOR TREATMENT OF NEURODEGENERATIVE DISEASES” (INSTITUTE OF MEDICINAL MOLECULAR DESIGN INC., priority 2002, published 2008).

Test system: NF-κ B activation
Assay: Inhibitory activity of NF-κB activation, luciferase reporter assay under TNF-α stimulation in HepG2
Type: cell-based, human
Conditions: HepG2, TNF-α 40 ng/ml, 4 hours; for inhibition at 1 µg/mL / inhibition at 10 µg/mL: Homo sapiens, read-out: Inhibitory rate against NF-κB activation (%)
Method: Measurement of Inhibitory Activity of NF-κB activation
Using a transfection reagent (Effectene; QIAGEN), the human hepatoma cell strain HepG2 was transfected with a plasmid (pNF κ B-Luc Reporter Plasmid; […]) integrated with an oligonucleotide having five tandem copies of NF-κ B binding sequences([…]) on a upstream region of firefly luciferase gene(Luc) according to the QIAGEN's protocol, and the cells were incubated for 6 to 24 hours. After addition of TNF-α (40 ng/ml) in the presence or absence of a test compound, the cells were incubated for 4 hours, and intracellular luciferase activity was measured by using PicaGene LT (TOYO INK MFG Co., Ltd.) and a chemical luminescence measurement apparatus ([…]luor Plus; TECAN). The inhibitory ratio was measured as a ratio relative to the value of the luciferase activity in the absence of the test compound.

SMILES	Inhibitory rate against NF-κB activation (%) (Drug concentration at 1 μg/mL)	Inhibitory rate against NF-κB activation (%) (Drug concentration at 10 μg/mL)	inhibition at 1 µg/mL (Drug concentration at 1 μg/mL) [%]	inhibition at 10 µg/mL (Drug concentration at 10 μg/mL) [%]
O=C(Nc1cc(C(F)(F)F)cc(C(F)(F)F)c1)c1cc(N=Nc2ccc([N+](=O)[O-])cc2)ccc1O [compound 48]	96.2	98.7	–	–
O=C(Nc1cc(C(F)(F)F)cc(C(F)(F)F)c1)c1cc(N=Nc2ccc(S(=O)(=O)Nc3ccccn3)cc2)ccc1O [compound 49]	19.4	89.1	–	–
Cc1ccc(C(=O)Nc2cc(C(F)(F)F)cc(C(F)(F)F)c2)c(O)c1 [compound 53]	93.3	94.5	–	–
O=C(Nc1cc(C(F)(F)F)cc(C(F)(F)F)c1)c1cc(Br)c(O)cc1O [compound 54]	–	86.5	–	–
O=C(Nc1cc(C(F)(F)F)cc(C(F)(F)F)c1)c1ccc(O)cc1O [compound 55]	10.8	88.6	–	–
O=C(Nc1cc(C(F)(F)F)cc(C(F)(F)F)c1)c1cccc(O)c1O [compound 57]	–	91.9	–	–
Cc1cccc(C(=O)Nc2cc(C(F)(F)F)cc(C(F)(F)F)c2)c1O [compound 58, N-[3,5-bis(trifluoromethyl)phenyl]-2-hydroxy-3-methylbenzamide]	–	–	88.2	95
COc1cccc(C(=O)Nc2cc(C(F)(F)F)cc(C(F)(F)F)c2)c1O [compound 59]	41.9	94.7	–	–
CC(C)(C)CC(C)(C)c1ccc(O)c(C(=O)Nc2cc(C(F)(F)F)cc(C(F)(F)F)c2)c1 [compound 60]	94.0	99.1	–	–
O=C(Nc1cc(C(F)(F)F)cc(C(F)(F)F)c1)c1c(O)c(Cl)cc(Cl)c1Cl [compound 61]	95.1	97.2	–	–
CC(C)(C)c1cc(C(=O)Nc2cc(C(F)(F)F)cc(C(F)(F)F)c2)c(O)c(C(C)(C)C)c1 [compound 62]	37.0	86.9	–	–
O=C(Nc1cc(C(F)(F)F)cc(C(F)(F)F)c1)c1cccc(Cl)c1O [compound 64]	84.9	94.1	–	–
COc1ccc(C(=O)Nc2cc(C(F)(F)F)cc(C(F)(F)F)c2)c(O)c1 [compound 65]	83.3	89.8	–	–
O=C(Nc1cc(C(F)(F)F)cc(C(F)(F)F)c1)c1cc2ccccc2cc1O [compound 72]	94.6	95.0	–	–
O=C(Nc1cc(C(F)(F)F)cc(C(F)(F)F)c1)c1scc(Br)c1O [compound 74, 4-Bromo-3-hydroxy-N-[3,5-bis(trifluoromethyl)phenyl]thiophene-2-carboxamide]	–	–	64	97.5
O=C(Nc1cc(C(F)(F)F)cc(C(F)(F)F)c1)c1nc2ccccc2nc1O [compound 80]	46.3	73.0	–	–
O=C(Nc1cc(C(F)(F)F)ccc1C(F)(F)F)c1cc(Cl)ccc1O [compound 81, N-[2,5-bis(trifluoromethyl)phenyl]-5-chloro-2-hydroxybenzamide]	–	–	95	96.3
CC(=O)Oc1ccc(Cl)cc1C(=O)Nc1cc(C(F)(F)F)ccc1C(F)(F)F [compound 82]	94.0	96.8	–	–
O=C(Nc1cc(C(F)(F)F)ccc1C(F)(F)F)c1cc(Br)ccc1O [compound 83]	95.7	98.3	–	–
Cc1ccc(O)c(C(=O)Nc2cc(C(F)(F)F)ccc2C(F)(F)F)c1 [compound 84]	92.6	96.6	–	–
O=C(Nc1cc(F)cc(C(F)(F)F)c1)c1cc(Cl)ccc1O [compound 85]	94.7	98.9	–	–
O=C(Nc1cc(Br)cc(C(F)(F)F)c1)c1cc(Br)ccc1O [compound 86]	96.7	98.7	–	–

SMILES	Inhibitory rate against NF-κB activation (%) (Drug concentration at 1 μg/mL)	Inhibitory rate against NF-κB activation (%) (Drug concentration at 10 μg/mL)	inhibition at 1 µg/mL (Drug concentration at 1 μg/mL) [%]	inhibition at 10 µg/mL (Drug concentration at 10 μg/mL) [%]
O=C(Nc1cc(C(F)(F)F)ccc1F)c1cc(Cl)ccc1O [compound 87]	93.1	95.9	–	–
O=C(Nc1cc(C(F)(F)F)ccc1Cl)c1cc(Cl)ccc1O [compound 88, 5-chloro-N-[2-chloro-5-(trifluoromethyl)phenyl]-2-hydroxybenzamide]	–	–	94.8	97.1
CC(=O)Oc1ccc(Cl)cc1C(=O)Nc1cc(C(F)(F)F)ccc1Cl [compound 89]	96.7	97.4	–	–
O=C(Nc1cc(C(F)(F)F)ccc1Cl)c1cc(Br)ccc1O [compound 90]	88.9	94.1	–	–
O=C(Nc1cc(C(F)(F)F)ccc1[N+](=O)[O-])c1cc(Cl)ccc1O [compound 91]	86.3	96.7	–	–
Cc1ccc(C(F)(F)F)cc1NC(=O)c1cc(Cl)ccc1O [compound 92]	93.8	97.9	–	–
COc1cc(NC(=O)c2cc(Br)ccc2O)cc(C(F)(F)F)c1 [compound 93]	84.5	97.2	–	–
COc1ccc(C(F)(F)F)cc1NC(=O)c1cc(Br)ccc1O [compound 94]	76.6	93.4	–	–
COc1ccc(C(F)(F)F)cc1NC(=O)c1cc(Cl)ccc1O [compound 95]	91.8	98.5	–	–
CSc1ccc(C(F)(F)F)cc1NC(=O)c1cc(Cl)ccc1O [compound 96]	94.6	99.1	–	–
O=C(Nc1cc(C(F)(F)F)ccc1N1CCCC1)c1cc(Br)ccc1O [compound 97]	95.8	97.8	–	–
O=C(Nc1cc(C(F)(F)F)ccc1Cl)c1cc([N+](=O)[O-])ccc1O [compound 99]	54.3	98.0	–	–
Cc1ccc(O)c(C(=O)Nc2cc(C(F)(F)F)ccc2Cl)c1 [compound 100]	85.6	95.1	–	–
Cc1ccc(O)c(C(=O)Nc2cc(C(F)(F)F)ccc2C)c1 [compound 102]	89.3	98.3	–	–
O=C(Nc1cc(Br)cc(C(F)(F)F)c1)c1cc(Cl)ccc1O [compound 104]	97.2	99.2	–	–
COc1cc(NC(=O)c2cc(Cl)ccc2O)cc(C(F)(F)F)c1 [compound 105]	94.6	97.5	–	–
O=C(Nc1cc(C(F)(F)F)ccc1N1CCOCC1)c1cc(Cl)ccc1O [compound 106]	92.3	92.1	–	–
O=C(Nc1cc(C(F)(F)F)ccc1Br)c1cc(Cl)ccc1O [compound 107]	94.9	96.2	–	–
COC(=O)c1cc(NC(=O)c2cc(Cl)ccc2O)cc(C(F)(F)F)c1 [compound 108, 5-chloro-2-hydroxy-N-[3-methoxycarbonyl-5-(trifluoromethyl)phenyl]benzamide]	–	–	41.5	88.4
O=C(Nc1cc(C(F)(F)F)ccc1Oc1ccc2ccccc2c1)c1cc(Cl)ccc1O [compound 110]	96.5	98.7	–	–
O=C(Nc1cc(C(F)(F)F)ccc1Oc1ccc(Cl)cc1Cl)c1cc(Cl)ccc1O [compound 111]	96.5	99.7	–	–
